These results are taken from patent US20060105940A1, “Compound useful in the treatment or prevention of cognitive disorders associated with diabetes and associated methods” (Axonyx, Inc., priority 2004, published 2006).

Structures are written as SMILES. Where a name gives a salt, the structure may show the parent alone. Read-outs that look alike come from different tables or passages of the source.

In general, IC50 refers to the concentration needed to halve the response being measured.

The nature of data set [1]: Solubility in water / aqueous solution. In kind it is physicochemical. The conditions noted are these: for Solubility (in words): aqueous solution, free base versus tartrate acid addition salt.
Data set [2] deals with T1, human AChE (Homo sapiens, UniProt P22303).
T1 construct: use human BChE and AChE freshly prepared from human plasma and erythrocytes, respectively; from tissue; host or cells: human erythrocytes
T1 sequence (P22303 32-617 isoform P22303-2 limits assumed): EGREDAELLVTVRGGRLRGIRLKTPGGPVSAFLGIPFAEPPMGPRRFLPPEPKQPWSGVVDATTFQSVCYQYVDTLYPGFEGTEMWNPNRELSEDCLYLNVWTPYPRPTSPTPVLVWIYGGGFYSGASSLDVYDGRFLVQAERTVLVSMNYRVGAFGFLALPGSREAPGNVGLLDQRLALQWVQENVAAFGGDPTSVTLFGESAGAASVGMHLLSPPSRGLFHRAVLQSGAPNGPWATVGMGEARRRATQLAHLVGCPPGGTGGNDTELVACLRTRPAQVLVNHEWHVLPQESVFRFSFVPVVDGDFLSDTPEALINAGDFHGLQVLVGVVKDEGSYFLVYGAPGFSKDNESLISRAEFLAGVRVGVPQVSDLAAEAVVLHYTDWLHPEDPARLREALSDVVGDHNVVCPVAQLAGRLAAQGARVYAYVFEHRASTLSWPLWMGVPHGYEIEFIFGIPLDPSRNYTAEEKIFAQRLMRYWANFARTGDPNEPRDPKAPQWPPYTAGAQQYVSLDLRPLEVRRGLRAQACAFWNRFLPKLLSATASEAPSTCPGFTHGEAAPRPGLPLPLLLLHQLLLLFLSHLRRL
The conditions noted are these: human AChE freshly prepared from human erythrocytes; see Greig et al. page 78; cited from earlier work.

Data set [3] relates to aged (24-26-month-old) Fischer-344 rats. The conditions noted are these: Stone 14-unit T-maze, Greig et al. 2003; cited from earlier work.
For data set [4], the target named is T2, human BChE (Homo sapiens, UniProt P06276).
T2 construct: use human BChE and AChE freshly prepared from human plasma and erythrocytes, respectively; from tissue; host or cells: human plasma
T2 sequence (P06276 29-602): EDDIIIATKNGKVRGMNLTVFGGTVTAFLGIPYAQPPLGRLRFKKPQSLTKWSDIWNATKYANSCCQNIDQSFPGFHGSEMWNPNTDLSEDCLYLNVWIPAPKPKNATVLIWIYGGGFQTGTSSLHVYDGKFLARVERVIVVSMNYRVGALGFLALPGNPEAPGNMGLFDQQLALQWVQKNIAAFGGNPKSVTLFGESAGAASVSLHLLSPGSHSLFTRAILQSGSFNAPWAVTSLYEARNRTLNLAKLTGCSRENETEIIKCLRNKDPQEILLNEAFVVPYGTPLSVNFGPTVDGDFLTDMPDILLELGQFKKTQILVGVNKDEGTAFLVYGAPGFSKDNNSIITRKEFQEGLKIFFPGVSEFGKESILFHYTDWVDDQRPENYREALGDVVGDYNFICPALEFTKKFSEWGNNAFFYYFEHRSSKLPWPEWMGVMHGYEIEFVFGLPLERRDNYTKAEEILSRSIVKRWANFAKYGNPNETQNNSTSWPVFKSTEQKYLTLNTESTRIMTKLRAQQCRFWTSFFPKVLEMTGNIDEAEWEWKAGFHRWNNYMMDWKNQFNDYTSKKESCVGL
The conditions noted are these: human BChE freshly prepared from human plasma; see Greig et al. page 78; cited from earlier work.

Data set [5] relates to aged (21-22 month old) Fisher-344 rats. The data set can be described thus: Stone maze cognitive ability test after i.p. MHI tartrate (Example VII). Type of data set: in vivo, rat. The conditions noted are these: 0.5 to 1.0 mg per kg intraperitoneal, daily, aged Fisher-344 rats. As for the experimental part: (See U.S. Pat. No. 6,683,105). MHI tartrate is administered in dosages in the range of 0.5 to 1.0 mg per kg of subject body weight. This dosage is administered daily, for example, 1-3 times per day. Effectiveness of MHI tartrate is measured by testing cognitive ability before and after administration. For instance, rats may be tested using a “Stone maze” in which a maze constructed of translucent plastic containing a grid floor wired for scrambled foot shocks surrounded by opaque gray walls to minimize effects of non-MHI tartrate related variables. Rats are given 10 seconds in which to navigate the maze. […] Similar cognitive tests, for instance timed, objective memorization tests, may be used on other subjects, such as humans.

The target of data set [6] is T2, human BChE. The data set can be described thus: Inhibition of human plasma BChE activity (IC50). Type of data set: biochemical. The conditions noted are these: human BChE freshly prepared from human plasma. An excerpt: (§1) Potential cholinesterase agents may be evaluated for potency in vitro by assaying its inhibitory effect on electric eel and human red blood cell ACHE and human plasma BCHE activity in cell-free extracts (See U.S. Pat. Nos. 6,495,700; 5,409,948; 5,171,750; 5,378,723; and 5,998,460). Studies also commonly utilize aged rat models to evaluate effectiveness of therapeutic drug leads in ameliorating cognitive disorders. […] (See, Greig, N. H. et al. “Butyrylcholinesterase: Its Function and Inhibition.” (ed., Giacobini, E.) Martin Dunitz, Ltd., London, 69-90, 2003, Chapter 6: Butyrylcholinesterase: its selective inhibition and relevance to Alzheimer's disease therapy at pages 80-81).
(§2) (See, Greig, N. H. et al. at page 78). These biological activity assays use human BChE and AChE freshly prepared from human plasma and erythrocytes, respectively.
(§3) These biological activity assays use human BChE and AChE freshly prepared from human plasma and erythrocytes, respectively.

Data set [7] addresses T1, human AChE. The data set can be described thus: Inhibition of human erythrocyte AChE activity (IC50). In kind it is biochemical. The conditions noted are these: human AChE freshly prepared from human erythrocytes.
Source text: as §1, §2, §3

In the case of `CC(C)c1ccc(NC(=O)Oc2ccc3c(c2)C2(C)CCNC2N3)cc1` (single isomer, unassigned; (-)) [MHI (Base)], the Solubility entry in data set [1] (listed as MHI) is “about 0.0005 g/ml”. In addition, in data set [1], the “Solubility (g per 100 ml Saturated H2O solution at room temperature)” value worked out at 0.05 g g per 100 ml. Also, the results for the half-inhibitory concentration (IC50) on human AChE [2] and on human BChE [4] were 110 ± 15 nM and 1 ± 0.1 nM, respectively. Further, in data set [3], the Augmenting memory processing result was “potent in augmenting memory processing”.
As for `CC(C)c1ccc(NC(=O)Oc2ccc3c(c2)C2(C)CCNC2N3)cc1` [MHI tartrate, tartrate acid addition salt of the compound (−)-(3aS)-3a-methyl-1,2,3,3a,8,8a-hexahydropyrrolo-[2,3-b]indol-5-yl N-4′-isopropylphenylcarbamate], in data set [1], the “Solubility (in words)” value was “highly soluble” and the “Solubility (g per 100 ml Saturated H2O solution at room temperature)” value is 1 g g per 100 ml. Besides, in data set [5], the “Cognitive ability (maze navigation)” value is reported as “increase cognitive ability”. Besides, the concentration for half-maximal inhibition (IC50) at human BChE [6] is 1 ± 0.1 nM. The same compound showed an IC50 against human AChE [7] of 110 ± 15 nM.
On to `CC(C)c1ccc(NC(=O)Oc2ccc3c(c2)[C@]2(C)CCN(CCc4ccccc4)[C@@H]2N3C)cc1` [phenethylcymserine, reference compound], for which, in data set [1], the “Solubility (in words)” value is “insoluble”.
